Test results published in US20160220710A1, “COMPOSITIONS AND METHODS FOR DELIVERING PHARMACEUTICAL AGENTS” (THE REGENTS OF THE UNIVERSITY OF MICHIGAN, priority 2015, published 2016).
Where two headings read alike, the source gives them in different places.

How the values were obtained:
[1] = system: TLR2, TLR4, TLR9 and MyD88; test: Western blot of TLR2, TLR4, TLR9 and MyD88 in RAW 264.7 cells; type: cell-based, murine; conditions: 24 h incubation
Method: (§1) The murine macrophage cell line RAW 264.7 was purchased from ATCC (Manassas, Va.) and maintained in DMEM (Life Technologies, Carlsbad, Calif.) supplemented with 10% FBS. Soluble CFZ or isolated CLDIs were added at various concentrations in DMEM with 5% FBS to 6-well plates containing 4×10^5 cells/well and incubated (24 h at 37° C. and 5% CO2). Culture supernatants were harvested at 24 h, centrifuged (1500×g for 5 min), and stored (−20° C.) in frozen aliquots prior to analysis. For experiments involving TLR stimulation, cells were washed twice with pre-warmed DPBS to remove extracellular, non-phagocytosed CLDIs or CFZ, and then the cells were serum-starved for 18 h in DMEM. Supernatants were collected from unstimulated cells and cells stimulated with 200 ng/ml Pam3 or 1 μg/ml LPS in DMEM.

alveolar macrophages = system: alveolar macrophages; set-up: species or system mice; conditions: mouse, in vivo, 6 weeks
Method: Clofazimine (CFZ, Sigma-Aldrich, C8895) was prepared in sesame oil (Shirakiku, Japan, or Roland, China) and Powdered Lab Diet 5001 (PMI International, Inc., St. Louis, Mo.) and orally administrated to Wild-type (WT) C57BL/6 mice or IL-1RA^−/− (4-5 week old, Jackson Laboratory, Bar Harbor, Me.) for up to 8 weeks ad libitum as previously described (Baik et al., 2013, supra; Baik et al., 2011, supra). Control mice were fed with the same diet without CFZ. The animal protocol was approved by the University of Michigan's Animal Care and Use Committee in accordance with the National Institutes of Health guidelines (UCUCA #PRO0005111).
PBS/LPS-instilled CFZ- or control mice were euthanized by exsanguination while deeply anesthetized with an intraperitoneal injection of ketamine/xylazine. The trachea was surgically exposed and cannulated with an 18 G needle and the lungs were lavaged by instilling 1 ml DPBS (Life Technologies) containing 0.5 mM EDTA (Sigma). The retrieved BAL was then centrifuged (10 min at 400×g, 4° C.), and the supernatant was frozen (−80° C.), while the cell pellets were resuspended in 1 ml RPMI 1640 media (Life Technologies). To count total cells, the cells were stained with Trypan blue and counted using a hemocytometer. […]

IκB = test: Western blot of phosphorylated IκB; type: cell-based, murine; conditions: 1 h
Method: as §1

TNFα = TNFα ELISA, non-stimulated cells; type: cell-based, murine; conditions: non-stimulated RAW 264.7 cells
Method: as §1
(§2) The media of cells with or without 6 h TLR stimulation by Pam3 or LPS was harvested, and TNFα and IL-1RA levels were measured by ELISA (Duoset, R&D Systems, Minneapolis, Minn.) in duplicate wells according to the manufacturer's instructions. The cytokine concentrations were expressed as picogram per milligram of cell lysate. Experiments were repeated three times and values are expressed as the mean±SD.

[2] = humans; cited from earlier work
IL-1RA = IL-1RA ELISA; type: cell-based, murine; conditions: RAW 264.7 cells, 24 h
Method: as §1, §2

NF-κB (p65) = test: p65 nuclear translocation immunofluorescence; type: cell-based, murine
Method: as §1, with “Supernatants were collected from unstimulated cells and cells stimulated with 200 ng/ml Pam3 or 1 μg/ml LPS in DMEM.” left out
Brightfield and fluorescence (DAPI, FITC, Texas Red and Cy5) images were captured using the Nikon Eclipse Ti (Japan) inverted microscope equipped with a Nikon Digital Sight DS-Fi2 camera (Japan) for brightfield and Photometrics Coolsnap Myo camera (Tucson, Ariz.) for fluorescence. […] For determining the ratio of nucleus-to-cytoplasm p65 fluorescence, ImageJ was used following previously described methods (Fuseler, et al., Microsc. Microanal. 2006, 12, 269-276; Noursadeghi, M. et al., J. Immunol. Methods 2008, 329, 194-200). The average volume of CLDIs was calculated using the area, Feret max and min values of each CLDI acquired from ImageJ. […]

[3] = Baseline vital signs of 8 wk CFZ-treated mice; type: in vivo
Method: Clofazimine (CFZ, Sigma-Aldrich, C8895) was prepared in sesame oil (Shirakiku, Japan, or Roland, China) and Powdered Lab Diet 5001 (PMI International, Inc., St. […] Baik et al., 2011, supra). Control mice were fed with the same diet without CFZ. The animal protocol was approved by the University of Michigan's Animal Care and Use Committee in accordance with the National Institutes of Health guidelines (UCUCA #PRO0005111). The general health status of each PBS/LPS-instilled mice was monitored by measuring body weight and rectal temperature (Microprobe Thermometer, Physitemp Instruments, Clifton, N.J.), and cardiopulmonary function (arterial oxygen saturation, respiratory rate, heart rate and pulse distention) was monitored using MouseOx with a collar clip sensor ([…] Sciences Corp, Oakmont, Pa.) as previously described (Lax S et al., (2014) BMJ open […], et al. (2014) PLoS One 9(6):e98336). In brief, one day before IT instillations (D-1) the hair around the neck of each mouse was removed using Nair (Church & Dwight, Princeton, N.J.) to enable data acquisition using the collar clip sensor. The next day (D 0), immediately prior to the first LPS/PBS dose, and every 24 h afterwards until day 6 (D 6), the body weight, temperature and MouseOx readings were recorded. MouseOx data was acquired by very brief anesthesia of the mouse using 5% isoflurane to facilitate the placement of the collar clip sensor. The mouse was then placed in an enclosed chamber with ambient light and allowed to acclimatize for 5 min at which point the animals had recovered normal activities and physiological readings.

For `CC(C)/N=c1\cc2n(-c3ccc(Cl)cc3)c3ccccc3nc-2cc1Nc1ccc(Cl)cc1` [CFZ, 3-(p-chloroanilino)-10-(p-chlorophenyl)-2, 10-dihydro-2-isopropyliminophenazine], the “TLR2 and TLR4 expression” value [1] was “upregulated TLR2 and TLR4 expression”, the “CLDI+ alveolar macrophages” value (alveolar macrophages; C57BL/6 (wild-type)) was 65% and the “CLDI+ alveolar macrophages” value (alveolar macrophages; IL-1RA−/−) was 60%. For the same compound, the IκB phosphorylation (IκB; LPS stimulation) was “inhibited LPS/TLR4-mediated IκB phosphorylation”, the IκB phosphorylation (IκB; Pam3 stimulation) was “the Pam3/TLR2-mediated response was not affected” and the “TNFα production on their own” value (TNFα) was “failed to induce TNFα production”. The “pharmacokinetic half-life t1/2” value [2] was about 70 days, the IL-1RA secretion (IL-1RA) was “did not affect IL-1RA secretion” and the p65 nuclear translocation (NF-κB (p65); LPS stimulation, 3 h, 4 μM soluble CFZ or 40 μM CLDI) was “reduced p65 translocation in response to LPS”. The p65 nuclear translocation (NF-κB (p65); naïve, no stimulation) was “did not induce nuclear translocation of p65”, the “arterial oxygen saturation, higher than control diet-treated” value [3] was 1.5% and the “behavioral signs of sickness” value [3] was “did not display any behavioral signs of sickness”. For the same compound, the body temperature [3] was “unaffected”, the “breathing rate, lower than control diet-treated” value [3] was 10.7% and the “heart rate, lower than control diet-treated” value [3] was 9.3%. For the same compound, the “pulse distention, lower than control diet-treated” value [3] was 16.9%, the “weight, less than control diet-treated” value [3] was 6.7% and the “Arterial O2 Saturation (% ± S.D.)” value ([3]; n = 16) was 99.01 ± 0.24%. The “Body Temperature (° C. ± S.D)” value ([3]; n = 16) was 35.52 ± 0.76 °C, the “Breathing rate (brpm ± S.D.)” value ([3]; n = 16) was 154.29 ± 19.43 brpm and the “Heart rate (bpm ± S.D.)” value ([3]; n = 16) was 573.94 ± 85.28 bpm. For the same compound, the “Pulse distention (μm ± S.D)” value ([3]; n = 16) was 425.57 ± 52.32 μm and the “Weight (g ± S.D)” value ([3]; n = 16) was 24.39 ± 1.92 g.
